This is an account of results in patent US7105516B2, “Compounds for the treatment of premature ejaculation” (Bristol-Myers Squibb Company, priority 2002, dated 2006).

Like-named read-outs stand apart in the source and are kept apart here.

In experiment [1] the target is T1, human serotonin transporters (Homo sapiens, UniProt P31645).
T1 construct: expressed in transfected cells; membrane homogenates
Kind of experiment: Serotonin Transporter Binding Assay ([3H]-citalopram displacement, HEK-hSERT cell membranes). As to conditions: 1 nM [3H]-citalopram, 1 hr at 25° C. The method, then: HEK-293 cells that stably express human serotonin transporters (HEK-hSERT cells) were grown at 37° C. in 5% CO2 as a monolayer in medium consisting of EMEM supplemented with 10% fetal bovine serum and G418 sulfate (500 μg/mL). […] Cells were transferred from plates to polypropylene tubes (16×100 mm), centrifuged at 1,200×g for 5 min and were frozen at −80° C. until assay. Following centrifugation, pellets were resuspended by homogenization in buffer consisting of 50 mM Tris (pH 7.7 at 25° C.), 120 mM NaCl and 5 mM KCl and then centrifuged at 32,000×g for 10 min. Following centrifugation, supernatants were discarded and pellets were resuspended in buffer consisting of 50 mM Tris (pH 7.4 at 25° C.), 150 mM NaCl and 5 mM KCl. Membrane homogenates (200 μl/plate) were incubated with 1 nM [^3H]-citalopram (specific activity=85 Ci/mMol) and increasing concentrations of test compounds for 1 hr at 25° C. in a total volume of 250 μl. The assay buffer consisted of 50 mM Tris (pH 7.4 at 25° C.), 120 mM NaCl and 5 mM KCl (pH 7.4 with conc. HCl). Plates were incubated for 1 hr at 25° C., then filtered through 0.5% PEI treated Whatman GF/B filters using a Brandel cell harvester. Filters were washed three times with 3 mL of ice-cold tris wash buffer. Non-specific binding was defined with 10 μM fluoxetine. Amount of radioligand bound in the presence and absence of competitor was analyzed by plotting (−)log drug concentration versus the amount of radioligand specifically bound. The midpoint of the displacement curve (IC50, nM), signifies the potency.

For experiment [2], the target named is T2, human norepinephrine transporters (Homo sapiens, UniProt P23975).
T2 construct: the text also calls them 'HEK-hNET cells'); membrane homogenates
T2 sequence (P23975 whole entry): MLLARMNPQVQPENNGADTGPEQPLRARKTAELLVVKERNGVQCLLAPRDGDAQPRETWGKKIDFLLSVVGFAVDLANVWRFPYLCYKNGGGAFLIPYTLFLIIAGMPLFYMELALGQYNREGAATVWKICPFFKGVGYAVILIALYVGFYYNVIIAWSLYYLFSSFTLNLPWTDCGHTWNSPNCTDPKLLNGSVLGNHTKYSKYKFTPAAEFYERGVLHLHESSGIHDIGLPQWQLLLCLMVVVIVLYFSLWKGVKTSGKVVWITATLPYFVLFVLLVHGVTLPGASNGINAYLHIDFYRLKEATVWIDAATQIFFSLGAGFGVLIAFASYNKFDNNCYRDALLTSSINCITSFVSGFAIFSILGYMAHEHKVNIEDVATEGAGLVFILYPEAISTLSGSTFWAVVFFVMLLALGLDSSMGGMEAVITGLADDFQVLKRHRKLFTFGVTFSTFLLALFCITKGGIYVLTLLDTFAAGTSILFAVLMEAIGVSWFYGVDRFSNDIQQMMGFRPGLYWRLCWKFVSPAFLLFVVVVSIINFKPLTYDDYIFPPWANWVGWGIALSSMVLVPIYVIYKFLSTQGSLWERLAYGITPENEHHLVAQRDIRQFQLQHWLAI
Kind of experiment: Norepinephrine Transporter Binding Assay ([3H]-nisoxetine displacement, hNET cell membranes). As to conditions: 2.7 nM [3H]-nisoxetine, 1 hr at 4° C., read-out: NE reuptake binding Ki. The method, then:
MDCK cells that stably express human norepinephrine transporters (HEK-hNET cells) were supplied by Receptor Biology, Inc. Pellets were resuspended by homogenization in buffer consisting of 50 mM Tris (pH 7.4 at 25° C.), 120 mM NaCl and 5 mM KCl. Membrane homogenates (200 μl/well, 8 ug protein) were incubated with 2.7 nM [^3H]-nisoxetine (specific activity=80 Ci/mMol) and increasing concentrations of test compounds for 1 hr at 4° C. in a total volume of 250 μl. The assay buffer consisted of 50 mM Tris (pH 7.4 at 25° C.), 120 mM NaCl and 5 mM KCl (pH 7.4 with conc. HCl). Plates were incubated for 1 hr at 4° C., then filtered through 0.5% PEI treated Whatman GF/B filters using a Brandel cell harvester. Filters were washed three times with 3 mL of ice-cold tris wash buffer. Non-specific binding was defined with 10 μM desipramine. Amount of radioligand bound in the presence and absence of competitor was analyzed by plotting (−)log drug concentration versus the amount of radioligand specifically bound. The midpoint of the displacement curve (IC50, nM), signifies the potency. Ki values were calculated using the method of Cheng and Prusoff (1973).

Where [3] appears, read: read-out: 5-HT reuptake binding Ki.

T1 sequence (P31645 whole entry): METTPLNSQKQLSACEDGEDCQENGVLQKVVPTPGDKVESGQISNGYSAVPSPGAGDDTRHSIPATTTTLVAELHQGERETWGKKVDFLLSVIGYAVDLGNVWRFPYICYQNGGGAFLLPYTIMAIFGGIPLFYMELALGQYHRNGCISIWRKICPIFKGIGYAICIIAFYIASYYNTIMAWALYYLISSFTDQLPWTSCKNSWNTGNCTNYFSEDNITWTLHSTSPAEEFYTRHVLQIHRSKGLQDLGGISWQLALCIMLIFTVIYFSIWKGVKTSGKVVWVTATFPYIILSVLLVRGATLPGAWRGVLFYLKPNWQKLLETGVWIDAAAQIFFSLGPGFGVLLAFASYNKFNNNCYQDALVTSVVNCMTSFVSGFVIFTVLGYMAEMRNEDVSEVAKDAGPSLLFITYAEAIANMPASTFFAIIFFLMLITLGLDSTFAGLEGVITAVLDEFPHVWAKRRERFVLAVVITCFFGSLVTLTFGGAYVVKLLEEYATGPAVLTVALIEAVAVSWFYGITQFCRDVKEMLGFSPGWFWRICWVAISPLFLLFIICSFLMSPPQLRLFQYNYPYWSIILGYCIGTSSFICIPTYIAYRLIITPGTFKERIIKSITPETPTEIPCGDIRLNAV

Regarding `CN(C)C[C@H]1CCC[C@@H]1c1c[nH]c2ccc(C#N)cc12` (racemic) [Example 25, Trans-3-(2-dimethylaminomethyl-cyclopentyl)-1H-indole-5-carbonitrile], the inhibition constant (Ki) – broadly, the dissociation constant of the complex between target and ligand, obtained from inhibition or displacement – is less than 1 nM in experiment [1] (5-HT reuptake binding Ki) and more than 1000 nM in experiment [2].

Take `CNC[C@H]1CCC[C@@H]1c1c[nH]c2ccc(C#N)cc12` (relative stereo) [Example 26, Trans-3-(2-methylaminomethyl-cyclopentyl)-1H-indole-5-carbonitrile]: the figures for the inhibitory constant (Ki) in experiment [1] (setting [3]) and in experiment [2] were 1 to 10 nM and more than 1000 nM, respectively.

Turning to `CCNC[C@H]1CCC[C@@H]1c1c[nH]c2ccc(C#N)cc12` (relative stereo) [Example 27, Trans-3-(2-ethylaminomethyl-cyclopentyl)-1H-indole-5-carbonitrile], the Ki is 10 to 100 nM in experiment [1] (5-HT reuptake binding Ki) and more than 1000 nM in experiment [2].

Consider `CCN(CC)C[C@H]1CCC[C@@H]1c1c[nH]c2ccc(C#N)cc12` (relative stereo) [Example 28, Trans-3-(2-diethylaminomethyl-cyclopentyl)-1H-indole-5-carbonitrile], for which the Ki in experiment [1] (5-HT reuptake binding Ki) was 100 to 500 nM; in experiment [2], more than 1000 nM.

In the case of `CCN(C)C[C@H]1CCC[C@@H]1c1c[nH]c2ccc(C#N)cc12` (relative stereo) [Example 29, Trans-3-{2-[(ethyl-methyl-amino)-methyl]-cyclopentyl}-1H-indole-5-carbonitrile], the inhibitory constant (Ki) is 1 to 10 nM in experiment [1] (5-HT reuptake binding Ki) and more than 1000 nM in experiment [2].

With `N#Cc1ccc2[nH]cc([C@H]3CCC[C@@H]3CN3CCCC3)c2c1` (relative stereo) [Example 30, Trans-3-(pyrrolidin-1-ylmethyl-cyclopentyl)-1H-indole-5-carbonitrile], the inhibitory constant (Ki) in experiment [1] (5-HT reuptake binding Ki) was 1 to 10 nM; in experiment [2] it was more than 1000 nM.

`CN(Cc1ccccc1)C[C@H]1CCC[C@@H]1c1c[nH]c2ccc(C#N)cc12` (relative stereo) [Example 31, Trans-3-{2-[(benzyl-methyl-amino)-methyl]-cyclopentyl}-1H-indole-5-carbonitrile]: the inhibitory constant (Ki) was 10 to 100 nM in experiment [1] (setting [3]) and more than 1000 nM in experiment [2].

For the molecule `CN(C)C[C@H]1CCC[C@@H]1c1cn(C)c2ccc(C#N)cc12` (relative stereo) [Example 32, Trans-3-(2-dimethylaminomethyl-cyclopentyl)-1-methyl-1H-indole-5-carbonitrile], the results for the Ki in experiment [1] (5-HT reuptake binding Ki) and in experiment [2] were 1 to 10 nM and more than 1000 nM, respectively.

On to `CCn1cc([C@H]2CCC[C@@H]2CN(C)C)c2cc(C#N)ccc21` (relative stereo) [Example 33, Trans-3-(2-dimethylaminomethyl-cyclopentyl)-1-ethyl-1H-indole-5-carbonitrile], for which the Ki was 1 to 10 nM in experiment [1] (setting [3]) and more than 1000 nM in experiment [2].

Take `CN(C)C[C@H]1CCC[C@@H]1c1ccc2[nH]cc(C#N)c2c1` (relative stereo) [Example 34, Trans-5-(2-dimethylaminomethyl-cyclopentyl)-1H-indole-3-carbonitrile]: the Ki was 1 to 10 nM in experiment [1] (setting [3]) and more than 1000 nM in experiment [2].

Consider `CNC[C@H]1CCC[C@@H]1c1ccc2[nH]cc(C#N)c2c1` (relative stereo) [Example 35, Trans-5-(2-methylaminomethyl-cyclopentyl)-1H-indole-3-carbonitrile], for which the Ki in experiment [1] (setting [3]) is 1 to 10 nM; in experiment [2], more than 1000 nM.

For `N#Cc1c[nH]c2ccc([C@H]3CCC[C@@H]3CN3CCCC3)cc12` (relative stereo) [Example 36, Trans-5-(2-pyrrolidin-1-ylmethyl-cyclopentyl)-1H-indole-3-carbonitrile], the inhibition constant Ki in experiment [1] (setting [3]) was 100 to 500 nM; in experiment [2], more than 1000 nM.

In the case of `CCNC[C@H]1CCC[C@@H]1c1ccc2[nH]cc(C#N)c2c1` (relative stereo) [Example 37, Trans-5-(ethylaminomethyl-cyclopentyl)-1H-indole-3-carbonitrile], the results for the Ki in experiment [1] (setting [3]) and in experiment [2] were 100 to 500 nM and more than 1000 nM, respectively.

Take `CCN(C)C[C@H]1CCC[C@@H]1c1ccc2[nH]cc(C#N)c2c1` (relative stereo) [Example 38, Trans-5-{2-[(ethyl-methyl-amino)-methyl]-cyclopentyl}-1H-indole-3-carbonitrile]: the Ki in experiment [1] (setting [3]) was 100 to 500 nM; in experiment [2], more than 1000 nM.
